The source of these data is patent US7138421B2, “Anti-androgenic pyrrolidines with tumor-inhibiting action” (Schring Aktiengesellschaft, priority 2003, dated 2006).

This experiment has as its system LNCaP cells. Nature of the experiment: Inhibition of the proliferation of LNCaP cells (crystal violet assay). It is filed as cell-based, human. To be noted: for inhibition at 1 µM / IC50: Homo sapiens, LNCaP; for inhibition at 1 µM: 1 μM test substance, compared to cell growth in the presence of 0.1 nmol of R1881, read-out: % Inhibition at 1 μM; for IC50: in the presence of 0.1 nmol of R1881, 7 to 8 days, read-out: IC50 inhibition of the proliferation of LNCaP cells; for antiproliferative action (in words): LNCaP cells. As to the method:
For the proliferation assay, 6000 LNCaP cells/well (Horoszewicz et al. Cancer Res. 1983, 43, 1809–1817) in a microtiter plate (96-well) in 50 μl of RPMI1640 medium are grown with 5% CCS and cultivated as in Model 1. After 24 hours, the cells receive 50 μl of 2×-concentrated test substance, diluted in culture medium. The solvent concentration is 0.5% DMSO. After 4 days, the cells receive another 100 μl of 1×-concentrated test substance, diluted in culture medium. After 7 to 8 days, the proliferation rate of the cells is determined by means of crystal violet assay (Gillies et al. Anal. Biochem. 1986, 159, 109–113). To determine the antagonism, the substance treatment is performed in the presence of […] of R1881 (1:1000 dilution of ethanolic solution). Control cells receive only 0.5% DMSO. For the agonism, the cells are treated only with test substance (without R1881).

For `COC[C@@H]1CCCN1CCCCCCCCN1C(=S)N(c2ccc(C#N)c(C(F)(F)F)c2)C(=O)C1(C)C` [Example 19, 4-[3-[8-[(2S)-2-(Methoxymethyl)pyrrolidin-1-yl]octyl]-4,4-dimethyl-5-oxo-2-thioxoimidazolidin-1-yl]-2-(trifluoromethyl)benzonitrile], the inhibition at 1 µM is 97% and the IC50 amounted to 25 nM.
For `CC1(C)C(=O)N(c2ccc(C#N)c(C(F)(F)F)c2)C(=S)N1CCCCCCCN1CC[C@H](O)C1` [Example 31, 4-[3-[7-[(S)-3-Hydroxypyrrolidin-1-yl]heptyl]-4,4-dimethyl-5-oxo-2-thioxoimidazolidin-1-yl]-2-(trifluoromethyl)benzonitrile] the same measures were 104% and 20 nM.
For `COC[C@H]1CCCN1CCCCCCCCN1C(=S)N(c2ccc(C#N)c(C(F)(F)F)c2)C(=O)C1(C)C` [Example 18, 4-[3-[8-[(2R)-2-(Methoxymethyl)pyrrolidin-1-yl]octyl]-4,4-dimethyl-5-oxo-2-thioxoimidazolidin-1-yl]-2-(trifluoromethyl)benzonitrile] the same measures were 103% and 11 nM.
Take `CCC(O)(CC)[C@@H]1CCCN1CCCCCCCCN1C(=S)N(c2ccc(C#N)c(C(F)(F)F)c2)C(=O)C1(C)C` [Example 47, 4-[3-[8-[(2S)-2-(1-Hydroxy-1-ethylpropyl)pyrrolidin-1-yl]octyl]-4,4-dimethyl-5-oxo-2-thioxoimidazolidin-1-yl]-2-(trifluoromethyl)benzonitrile]: the inhibition at 1 µM stood at 99% and the IC50 was found to be 27 nM.
For `CC(C)(O)[C@@H]1CCCN1CCCCCCCCCN1C(=S)N(c2ccc(C#N)c(C(F)(F)F)c2)C(=O)C1(C)C` [Example 41, 4-[3-[9-[(2S)-2-(1-Hydroxy-1-methylethyl)pyrrolidin-1-yl]nonyl]-4,4-dimethyl-5-oxo-2-thioxoimidazolidin-1-yl]-2-(trifluoromethyl)benzonitrile] the same measures were 89% and 48 nM.
For `CC1(C)C(=O)N(c2ccc(C#N)c(C(F)(F)F)c2)C(=S)N1CCCCCCCN1CC[C@H](C(N)=O)C1` [Example 50, (S)-1-[7-[3-[4-Cyano-3-(trifluoromethyl)phenyl]-5,5-dimethyl-4-oxo-2-thioxoimidazolidin-1-yl]heptyl]pyrrolidine-4-carboxamide], the inhibition at 1 µM stood at 110% and the IC50 was 15 nM.
For `CC(C)(O)[C@H]1CCCN1CCCCCCCN1C(=S)N(c2ccc(C#N)c(C(F)(F)F)c2)C(=O)C1(C)C` [Example 43, 4-[3-[7-[(2R)-2-(1-Hydroxy-1-methylethyl)pyrrolidin-1-yl]heptyl]-4,4-dimethyl-5-oxo-2-thioxoimidazolidin-1-yl]-2-(trifluoromethyl)benzonitrile] the same measures were 113% and 26 nM.
Consider `CC1(C)C(=O)N(c2ccc(C#N)c(C(F)(F)F)c2)C(=S)N1CCCCCCCCN1CC[C@@H](C(N)=O)C1` [Example 54, (R)-1-[8-[3-[4-Cyano-3-(trifluoromethyl)phenyl]-5,5-dimethyl-4-oxo-2-thioxoimidazolidin-1-yl]octyl]pyrrolidine-4-carboxamide], for which the inhibition at 1 µM was found to be 93% and the IC50 was found to be 64 nM.
On to `CC1(C)C(=O)N(c2ccc(C#N)c(C(F)(F)F)c2)C(=S)N1CCCCN1CCCC1` [Comparison 1, 4-[4,4-Dimethyl-5-oxo-3-[4-(pyrrolidin-1-yl)butyl]-2-thioxoimidazolidin-1-yl]-2-(trifluoromethyl)benzonitrile, reference compound], for which the inhibition at 1 µM was 20%, the IC50 came to 4300 nM and the “antiproliferative action (in words)” value is “considerably reduced antiproliferative activity”.
On to `CC1(C)C(=O)N(c2ccc(C#N)c(C(F)(F)F)c2)C(=S)N1CCCCCCCCCN1CCC[C@@H]1CO` [Example 12, 4-[3-[9-[(2R)-2-(Hydroxymethyl)pyrrolidin-1-yl]nonyl]-4,4-dimethyl-5-oxo-2-thioxoimidazolidin-1-yl]-2-(trifluoromethyl)benzonitrile], for which the inhibition at 1 µM amounted to 93% and the IC50 stood at 24 nM.
In the case of `COC[C@@H]1CCCN1CCCCCCCN1C(=S)N(c2ccc(C#N)c(C(F)(F)F)c2)C(=O)C1(C)C` [Example 17, 4-[3-[7-[(2S)-2-(Methoxymethyl)pyrrolidin-1-yl]heptyl]-4,4-dimethyl-5-oxo-2-thioxoimidazolidin-1-yl]-2-(trifluoromethyl)benzonitrile], the inhibition at 1 µM stood at 99% and the IC50 stood at 32 nM.
Take `CC1(C)C(=O)N(c2ccc(C#N)c(C(F)(F)F)c2)C(=S)N1CCCCCCCCN1CC[C@H](O)C1` [Example 32, 4-[3-[8-[(S)-3-Hydroxypyrrolidin-1-yl]octyl]-4,4-dimethyl-5-oxo-2-thioxoimidazolidin-1-yl]-2-(trifluoromethyl)benzonitrile]: the inhibition at 1 µM worked out at 101% and the IC50 turned out to be 12 nM.
As to `CC1(C)C(=O)N(c2ccc(C#N)c(C(F)(F)F)c2)C(=S)N1CCCCCCCCCN1CCC[C@H]1CO` [Example 13, 4-[3-[9-[(2S)-2-(Hydroxymethyl)pyrrolidin-1-yl]nonyl]-4,4-dimethyl-5-oxo-2-thioxoimidazolidin-1-yl]-2-(trifluoromethyl)benzonitrile], the inhibition at 1 µM worked out at 88% and the IC50 was found to be 16 nM.
As for `CC1(C)C(=O)N(c2ccc(C#N)c(C(F)(F)F)c2)C(=S)N1CCCCCCN1CC[C@H](C(N)=O)C1` [Example 49, (S)-1-[6-[3-[4-Cyano-3-(trifluoromethyl)phenyl]-5,5-dimethyl-4-oxo-2-thioxoimidazolidin-1-yl]hexyl]pyrrolidine-4-carboxamide], the inhibition at 1 µM turned out to be 110% and the IC50 was 32 nM.
For the molecule `COC[C@@H]1CCCN1CCCCCCCCCN1C(=S)N(c2ccc(C#N)c(C(F)(F)F)c2)C(=O)C1(C)C` [Example 21, 4-[3-[9-[(2S)-2-(Methoxymethyl)pyrrolidin-1-yl]nonyl]-4,4-dimethyl-5-oxo-2-thioxoimidazolidin-1-yl]-2-(trifluoromethyl)benzonitrile], the inhibition at 1 µM was determined as 94% and the IC50 was determined as 47 nM.
Turning to `CC1(C)C(=O)N(c2ccc(C#N)c(C(F)(F)F)c2)C(=S)N1CCCCCCN1CCC[C@@H]1CO` [Example 6, 4-[3-[6-[(2R)-2-(Hydroxymethyl)pyrrolidin-1-yl]hexyl]-4,4-dimethyl-5-oxo-2-thioxoimidazolidin-1-yl]-2-(trifluoromethyl)benzonitrile], the inhibition at 1 µM was found to be 102% and the IC50 amounted to 55 nM.
Turning to `CC1(C)C(=O)N(c2ccc(C#N)c(C(F)(F)F)c2)C(=S)N1CCCCCN1CCCC1` [Comparison 2, 4-[4,4-Dimethyl-5-oxo-3-[5-(pyrrolidin-1-yl)pentyl]-2-thioxoimidazolidin-1-yl]-2-(trifluoromethyl)benzonitrile, reference compound], the inhibition at 1 µM was 38%, the IC50 stood at 2100 nM and the “antiproliferative action (in words)” value is recorded as “considerably reduced antiproliferative activity”.
As for `CC1(C)C(=O)N(c2ccc(C#N)c(C(F)(F)F)c2)C(=S)N1CCCCCCCN1CC[C@@H](O)C1` [Example 27, 4-[3-[7-[(R)-3-Hydroxypyrrolidin-1-yl]heptyl]-4,4-dimethyl-5-oxo-2-thioxoimidazolidin-1-yl]-2-(trifluoromethyl)benzonitrile], the inhibition at 1 µM was found to be 95% and the IC50 was 57 nM.
Consider `COC[C@H]1CCCN1CCCCCCCN1C(=S)N(c2ccc(C#N)c(C(F)(F)F)c2)C(=O)C1(C)C` [Example 16, 4-[3-[7-[(2R)-2-(Methoxymethyl)pyrrolidin-1-yl]heptyl]-4,4-dimethyl-5-oxo-2-thioxoimidazolidin-1-yl]-2-(trifluoromethyl)benzonitrile], for which the inhibition at 1 µM was 98% and the IC50 was found to be 18 nM.
For `CC1(C)C(=O)N(c2ccc(C#N)c(C(F)(F)F)c2)C(=S)N1CCCCCCCCN1C2CCC1CC(O)C2` (stereo not drawn) [Example 24, 4-[3-[8-(3-Hydroxy-8-azabicyclo[3.2.1]oct-8-yl)octyl]-4,4-dimethyl-5-oxo-2-thioxoimidazolidin-1-yl]-2-(trifluoromethyl)benzonitrile] the same measures were 102% and 13 nM.
For `CC1(C)C(=O)N(c2ccc(C#N)c(C(F)(F)F)c2)C(=S)N1CCCCCCCN1CC[C@@H](C(N)=O)C1` [Example 53, (R)-1-[7-[3-[4-Cyano-3-(trifluoromethyl)phenyl]-5,5-dimethyl-4-oxo-2-thioxoimidazolidin-1-yl]heptyl]pyrrolidine-4-carboxamide], the inhibition at 1 µM was found to be 97% and the IC50 amounted to 49 nM.
For `CC1CCCN1CCCCCCCN1C(=S)N(c2ccc(C#N)c(C(F)(F)F)c2)C(=O)C1(C)C` (stereo not drawn) [Example 35, 4-[4,4-Dimethyl-3-[7-(2-methylpyrrolidin-1-yl)heptyl]-5-oxo-2-thioxoimidazolidin-1-yl]-2-(trifluoromethyl)benzonitrile] the same measures were 92% and 30 nM.
In the case of `CC1(C)C(=O)N(c2ccc(C#N)c(C(F)(F)F)c2)C(=S)N1CCCCCCCCN1CC[C@H](C(N)=O)C1` [Example 51, (S)-1-[8-[3-[4-Cyano-3-(trifluoromethyl)phenyl]-5,5-dimethyl-4-oxo-2-thioxoimidazolidin-1-yl]octyl]pyrrolidine-4-carboxamide], the inhibition at 1 µM was 97% and the IC50 was determined as 20 nM.

For orientation: inhibition means the change of the read-out against control, counted positive when it falls.
